Experimental findings from US8067422B2, “Crystal form of phenylamino pyrimidine derivatives” (Natco Pharma Limited, priority 2008, dated 2011) are described below.

“Also recorded” adds a separate entry of the source. Where a name gives a salt, the structure may show the parent alone.

Data set [1] in a line: Heat stability of Form-III crystal form (XRPD after heating). The format is physicochemical. As to conditions: for Polymorph form detected after heating: 6 hours, XRPD. The text has this: Pure Form-III crystal form (1 gm) prepared by the present process was placed in a boiling tube and heated gradually in oil bath. Then the substance was examined by XRPD.
Data set [2] in a line: Stability of Form-III crystal form under accelerated stress conditions in bulk and formulated capsule. In kind it is physicochemical.
Data set [3] in a line: Thermodynamic stability of crystal forms at room temperature. The format is physicochemical. An excerpt:
This is indicative of the greater stability of the Form-III crystal form.

The subject of a further data set is ZR71 breast cancer cells. Kind of data set: Matrigel invasion assay (modified Boyden chamber), ZR-71. The format is cell-based. The method, then:
(§1) The in vitro invasiveness of 4910, 5310 and U87 glioma cells and MDAMB231 and ZR71 breast cancer cells in the presence of specified concentrations of compounds were assessed using a modified Boyden chamber assay. Cells were treated with these compounds for 48 h. 1×10^6 cells were suspended in 600 μl of serum-free medium supplemented with 0.2% BSA and placed in the upper compartment of the transwell chambers (Corning Costar Fischer Scientific Cat #07-200-158, Pittsburgh Pa.) coated with Matrigel (0.7 mg/ml). The lower compartment of the chamber was filled with 200 μl of serum medium and the cells were allowed to migrate for 24 h. After incubation, the cells were fixed and stained with Hema-3 and quantified as previously described (Mohanam et al. 1993). The migrated cells were imaged microscopically to determine the reduction in invasiveness induced by the compounds of this invention.

For data set [4], the system named is MDAMB231 breast cancer cells. Kind of data set: Matrigel invasion assay (modified Boyden chamber), MDA-MB-231. The format is cell-based. The method, then:
as §1

The next data set relates to 4910 glioma cells. Kind of data set: Matrigel invasion assay (modified Boyden chamber), 4910. In kind it is cell-based, human. The method, then: as §1
The next data set deals with 5310 glioma cells. In words: Matrigel invasion assay (modified Boyden chamber), 5310. The format is cell-based. The method, then: as §1
A further data set deals with U87 glioma cells. In words: Matrigel invasion assay (modified Boyden chamber), U87. The format is cell-based. The method, then:
as §1

Data set [5] has as its system 4910 human glioma xenograft cells. In words: Glioma radiation study, nude mice intracranially implanted with 4910 cells. The format is in vivo. The settings on record: of 10 animals; without radiation; day 40 post implantation. The method, then:
Nude mice were intracranially implanted with 4910 human glioma xenograft cells (1×10^6 cells). Ten days after implantation mice were treated with AN019, AN024 or temozolomide with or without radiation (5 Gy/week). The experiment was terminated at day 40 post implantation.

The subject of data set [6] is K562 cells. In words: Anti-CML activity in nude mice implanted with K562 cells (leukemia growth index). In kind it is in vivo. The settings on record: ip injections. The text has this: Nude mice (nu/nu) were implanted with K562 cells (1×10^6) via tail vein.
Blood was drawn via the tail vein. Quantitative analysis of LGI was graphically represented.

The test system of data set [7] is K562 cells. In words: Spleenic enlargement and spleen Crk immunocytochemistry in K562 implanted nude mice. The format is in vivo. The settings on record: ip injections. The protocol: Control mice were sacrificed on day 42 when secondary leukemia symptoms were observed, such as abdominal swelling and lack of circulation in the peripherals causing loss of digits with red spots under the skin surface. Spleen and any secondary tumors were harvested, fixed in formaldehyde and paraffin embedded as per standard protocols. Paraffin section were obtained and processed for immunocytochemistry. The rehydrated sections were treated with 0.3% H2O2 to inactivate any native peroxidases prior to immuno-probing. The sections were blocked with filter sterilized (0.22 μm) 1% BSA-PBS at room temperature for 1 h. Following blocking, the sections were immuno-probed with a human specific anti-Crk monoclonal primary antibody raised in rabbit against a synthetic peptide corresponding to residues in the SH2 domain, near the N-term of human CrkL protein (Abcam, Cambridge, Mass., USA) in 1% BSA-PBS overnight. Secondary antibody (anti-rabbit) conjugated to HRP was used to detect the presence of primary antibody. The sections were briefly rinsed three times in PBS solution after immuno-probing with secondary antibody, and DAB HRP substrate was added per manufacture's instructions (Sigma St Louis Mo. USA). The reaction was allowed to proceed until sharp contrast between positive and negative controls was observed. For negative controls primary antibody were eliminated. Leukemic mice spleen served as positive controls.
Mice were sacrificed after a decrease in LGI was observed and spleen harvested. […] Control mice also developed random subcutaneous tumors showing Crk expression, indicative of the presence of K562 cells.

The test system of data set [8] is K562 luciferase expressing cells. Kind of data set: Leukemic survival study in nude mice implanted with K562 luciferase expressing cells. The format is in vivo. The text has this:
K562 luciferase expressing cells were implanted intraperitoneally into nude mice; the mice were scanned using the xenogeny IVIS image station after ip injections of luciferin does determine implantations. Drug treatment was started as in previous studies day 15 after implantation. The animals were given treatment till day 42, after which drug treatment was stopped and survival of the animals determined as per the animal care regulations. […] Drug treatment was withdrawn on day 42 post implantation and survival of animals determined.

[9] abbreviates: drug treatment withdrawn on day 42.

Regarding `Cc1ccc(NC(=O)c2cc(C(F)(F)F)cc(C(F)(F)F)c2)cc1Nc1nccc(-c2cccnc2)n1` [Form-III, (3,5-bis trifluoromethyl)-N-[4-methyl-3-(4-pyridin-3yl-pyrimidin-2ylamino)-phenyl]-benzamide], the “Polymorph form detected after heating” value in data set [1] (110° C.), in data set [1] (120° C.) and in [1] (130° C.) was “Form-III” in each case. Besides, in [1] (heated at 130° C. for 6 hours), the Heat stability entry was “non-metastable and stable; also recorded: stable to heat”. Besides, the “Polymorph content of bulk compound of formula I, polymorph form detected” value in [2] (0 Month at 40 ± 2° C./75 ± 5% RH), in data set [2] (1 Month at 40 ± 2° C./75 ± 5% RH), in data set [2] (2 Months at 40 ± 2° C./75 ± 5% RH), in data set [2] (3 Months at 40 ± 2° C./75 ± 5% RH) and in [2] (6 Months at 40 ± 2° C./75 ± 5% RH) was “Form-III” throughout. Also, the “Stability of crystal form” value in data set [3] is reported as “thermodynamically stable”.
In the case of `Cn1nnc2c(C(N)=O)ncn2c1=O` [Temozolomide], the “±Change in invasion after radiation” value is −5% in the data set on ZR71 breast cancer cells (ZR-71); −13% in data set [4] (MDA-MB-231); −22% with 4910 glioma cells (4910); “+13%” with 5310 glioma cells (5310); “+3%” in the data set on U87 glioma cells (U87). In addition, the “+Radiation % Invasion” value in the data set with ZR71 breast cancer cells (ZR-71, with radiation, 48 h treatment) amounted to 65%; in data set [4] (MDA-MB-231, with radiation, 48 h treatment), 49%; in the data set with 4910 glioma cells (4910, with radiation, 48 h treatment), 73%; with 5310 glioma cells (5310, with radiation, 48 h treatment), 63%; in the data set on U87 glioma cells (U87, with radiation, 48 h treatment), 93%. In addition, the “−Radiation % Invasion” value in the data set on ZR71 breast cancer cells (ZR-71, without radiation, 48 h treatment) is on record as 70%; in data set [4] (MDA-MB-231, without radiation, 48 h treatment), 62%; in the data set with 4910 glioma cells (4910, without radiation, 48 h treatment) it was 95%; in the data set with 5310 glioma cells (5310, without radiation, 48 h treatment), 50%; in the data set on U87 glioma cells (U87, without radiation, 48 h treatment) it was 90%. The “Animals cured / complete absence of intracranial tumours” value in data set [5] worked out at 3 animals.
In the case of `Cc1ccc(NC(=O)c2cc(C(F)(F)F)cc(C(F)(F)F)c2)cc1Nc1nccc(-c2cccnc2)n1` [Form-II, (3,5-bis trifluoromethyl)-N-[4-methyl-3-(4-pyridin-3yl-pyrimidin-2ylamino)-phenyl]-benzamide], the “Stability of crystal form” value in data set [3] is listed as “metastable”.
As for `Cc1ccc(NC(=O)c2ccc(CN3CCN(C)CC3)cc2)cc1Nc1nccc(-c2cccnc2)n1` [Imatinib, Imatinib mesylate, reference compound], the “Physiological, phenotypic or behavioral abnormality” value in the data set with K562 cells [6] is given as “no abnormal physiological, phenotypic or behavioral abnormality”. Also, in the data set with K562 cells [7], the “Crk expression in spleen (immunohistochemistry)” value is “few colonies with low to undetectable expression levels of Crk; also recorded: localized expression regions of Crk expression” and the “Spleenic enlargement (gross observation)” value is listed as “slight spleenic enlargement”. Moreover, in data set [8] (setting [9]), the “Blast cell count from blood smears, effectiveness after withdrawal of drug treatment” value is listed as “ineffective” and the “Leukemic symptoms after treatment withdrawal” value is “reoccurrences of leukemic symptoms”. In addition, the Mortality result in data set [8] (treatment day 15 to day 42, then withdrawn, 10 animals) was “mortality on day 55, 56, 57 and 58”.
Take `Cc1ccc(NC(=O)c2cc(C(F)(F)F)cc(C(F)(F)F)c2)cc1Nc1nccc(-c2cccnc2)n1` [Form-I, (3,5-bis trifluoromethyl)-N-[4-methyl-3-(4-pyridin-3yl-pyrimidin-2ylamino)-phenyl]-benzamide]: in data set [3], the “Stability of crystal form” value was “metastable”.
